In article PMC12064818, “A general assay platform to study protein pharmacology using ligand-dependent structural dynamics” (Nature Communications, 2025):

Assays:
[1] = biological target: T1, NLuc (Oplophorus gracilirostris, UniProt Q9GV45, A31E/A60N/A81I/F95D/I117V/K70R/L54V/L99Q/M102K/N193R/P142E/Q151K/Q38R/Q45L/V71I/Y165I); type: biochemical; details: - ATP
T1 construct: His tag (inferred from IMAC purification); made in house; host or cells: E. coli
Summary of the method: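 Luminescence was read 10 min after Nano-Glo reagent addition. Enzyme was 1 nM NLuc in PBS/0.05% IGEPAL buffer, with or without ATP.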

[2] = biological target: P. pyralis FLuc (Photinus pyralis, UniProt P08659); test: FLuc enzymatic luminescence assay, P. pyralis FLuc; type: biochemical; details: FLuc enzymatic assay, Clade S follow-up; for IC50: read-out: IC50 or SDR50 (mM) FLuc E
Sequence of P. pyralis FLuc (P08659 whole entry): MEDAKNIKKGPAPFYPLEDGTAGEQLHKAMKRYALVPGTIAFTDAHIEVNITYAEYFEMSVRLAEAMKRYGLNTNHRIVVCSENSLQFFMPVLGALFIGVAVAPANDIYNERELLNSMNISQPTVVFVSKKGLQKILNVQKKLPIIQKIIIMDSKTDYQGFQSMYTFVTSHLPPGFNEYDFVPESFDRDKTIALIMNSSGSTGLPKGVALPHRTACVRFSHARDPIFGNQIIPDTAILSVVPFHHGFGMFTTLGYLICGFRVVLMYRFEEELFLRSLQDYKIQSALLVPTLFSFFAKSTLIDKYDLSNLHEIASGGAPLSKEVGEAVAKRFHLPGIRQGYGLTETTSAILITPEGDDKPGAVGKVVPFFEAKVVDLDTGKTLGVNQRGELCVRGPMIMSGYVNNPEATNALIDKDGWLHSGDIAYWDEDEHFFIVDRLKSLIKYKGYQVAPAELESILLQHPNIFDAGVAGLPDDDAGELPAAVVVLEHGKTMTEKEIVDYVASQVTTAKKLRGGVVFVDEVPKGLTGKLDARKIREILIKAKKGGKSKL
Summary of the method: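 Runs with and without 10 µM ATP: compounds were pre-incubated with FLuc (1–10 nM, PBS pH 7.4) at ambient temperature, light-protected, for 30–60 min. Luminescence was imaged 5 min after adding 10 µM D-luciferin (final). Inhibition was scaled between DMSO neutral and no-enzyme controls.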

[3] = biological target: FLuc-C-NLuc (firefly luciferase) (Photinus pyralis, UniProt P08659, form not given/L550V); test: SDR assay, FLuc-C-NLuc; details: - ATP
Sequence of FLuc-C-NLuc (firefly luciferase) (P08659 2-550 L550V, form open): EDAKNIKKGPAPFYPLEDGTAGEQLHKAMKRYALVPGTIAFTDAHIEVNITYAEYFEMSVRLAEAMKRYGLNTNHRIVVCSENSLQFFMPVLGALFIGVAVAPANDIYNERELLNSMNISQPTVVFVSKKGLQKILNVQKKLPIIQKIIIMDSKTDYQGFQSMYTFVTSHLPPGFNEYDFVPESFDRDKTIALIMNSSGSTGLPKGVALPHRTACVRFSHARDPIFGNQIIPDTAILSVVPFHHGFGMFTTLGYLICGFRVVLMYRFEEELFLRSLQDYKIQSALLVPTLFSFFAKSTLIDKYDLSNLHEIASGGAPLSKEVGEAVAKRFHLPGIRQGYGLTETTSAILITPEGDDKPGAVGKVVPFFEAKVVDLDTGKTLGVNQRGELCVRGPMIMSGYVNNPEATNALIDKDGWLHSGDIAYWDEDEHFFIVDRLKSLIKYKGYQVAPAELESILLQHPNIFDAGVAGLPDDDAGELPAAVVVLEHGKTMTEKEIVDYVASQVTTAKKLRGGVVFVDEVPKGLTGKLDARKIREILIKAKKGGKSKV

[4] = biological target: FLuc-C-HiBiT (firefly luciferase) (Photinus pyralis, UniProt P08659, form not given/L550V); test: SDR assay, FLuc-C-HiBiT; details: SDR max. response, clade S
Sequence of FLuc-C-HiBiT (firefly luciferase) (P08659 2-550 L550V, form open): as above

T1 sequence (Q9GV45 other isoform, or with tags, fused parts or gaps with the stated changes): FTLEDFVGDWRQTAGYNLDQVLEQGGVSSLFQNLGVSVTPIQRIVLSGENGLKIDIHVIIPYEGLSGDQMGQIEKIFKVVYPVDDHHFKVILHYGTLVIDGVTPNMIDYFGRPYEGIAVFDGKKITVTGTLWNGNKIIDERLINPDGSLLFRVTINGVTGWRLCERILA

SMILES	Efficacy (%) NLuc (- ATP) [1]	Efficacy (%) FLuc E [2]	Efficacy (%) FLuc-C-NLuc SDR (-ATP) [3]	% Activity (max response, + ATP) [4]	% Activity (max response, - ATP) [4]	pIC50 or pSDR50 FLuc E [2]	IC50 [2]
COc1ccc(C2Cn3cnc(C(=O)N4CCC(C(=O)NCc5ccccc5)CC4)c3CO2)cc1 (stereo not shown) [NCGC00449865-01]	0.00%	0.00%	0.00%	0.00%	0.00%	–	–
COc1ccc(C2Cn3cnc(C(=O)N4CCC(C(=O)NCc5ccc(C)cc5)CC4)c3CO2)cc1 (stereo not shown) [NCGC00449866-01]	-22.39%	0.00%	0.00%	0.00%	-10.00%	–	–
COc1ccc(C2Cn3cnc(C(=O)N4CCC(C(=O)NCCc5ccccc5)CC4)c3CO2)cc1 (stereo not shown) [NCGC00449871-01]	0.00%	0.00%	0.00%	0.00%	0.00%	–	–
COc1ccc(C2Cn3cnc(C(=O)N4CCC(C(=O)NCC5CCCCC5)CC4)c3CO2)cc1 (stereo not shown) [NCGC00449872-01]	0.00%	-14.52%	0.00%	0.00%	0.00%	–	–
COc1ccc(C2Cn3cnc(C(=O)N4CCC(C(=O)NCC5CC5)CC4)c3CO2)cc1 (stereo not shown) [NCGC00449873-01]	0.00%	0.00%	0.00%	0.00%	0.00%	–	–
COCCCNC(=O)C1CCN(C(=O)c2ncn3c2COC(c2ccc(OC)cc2)C3)CC1 (stereo not shown) [NCGC00449877-01]	0.00%	0.00%	0.00%	0.00%	0.00%	–	–
COc1ccc(C2Cn3cnc(C(=O)N4CCC(C(=O)NCc5cccc(C)c5)CC4)c3CO2)cc1 (stereo not shown) [NCGC00449879-01]	0.00%	0.00%	0.00%	0.00%	0.00%	–	–
Cc1ccc(C2Cn3cnc(C(=O)N4CCC(C(=O)NC5CCCC5)CC4)c3CO2)cc1 (stereo not shown) [NCGC00449881-01]	0.00%	-51.50%	0.00%	73.27%	0.00%	4.96	0.0111 mM
Cc1ccc(C2Cn3cnc(C(=O)N4CCC(C(=O)NC5CCCCC5)CC4)c3CO2)cc1 (stereo not shown) [NCGC00449882-01]	0.00%	-33.56%	0.00%	52.31%	0.00%	4.91	0.0124 mM
Cc1ccc(C2Cn3cnc(C(=O)N4CCC(C(=O)NCCC5=CCCCC5)CC4)c3CO2)cc1 (stereo not shown) [NCGC00449883-01]	0.00%	-54.72%	0.00%	75.13%	0.00%	5.01	0.00988 mM
Cc1ccc(C2Cn3cnc(C(=O)N4CCC(C(=O)NCc5ccccc5)CC4)c3CO2)cc1 (stereo not shown) [NCGC00449884-01]	-9.37%	-51.95%	0.00%	91.57%	0.00%	4.96	0.0111 mM
COc1cccc(CNC(=O)C2CCN(C(=O)c3ncn4c3COC(c3ccc(C)cc3)C4)CC2)c1 (stereo not shown) [NCGC00449886-01]	-7.20%	-31.42%	0.00%	57.89%	0.00%	4.91	0.0124 mM
COc1ccc(CNC(=O)C2CCN(C(=O)c3ncn4c3COC(c3ccc(C)cc3)C4)CC2)cc1 (stereo not shown) [NCGC00449887-01]	0.00%	-38.46%	0.00%	80.81%	0.00%	4.96	0.0111 mM
Cc1ccc(C2Cn3cnc(C(=O)N4CCC(C(=O)NCc5ccccc5F)CC4)c3CO2)cc1 (stereo not shown) [NCGC00449888-01]	0.00%	-37.08%	0.00%	72.23%	0.00%	4.91	0.0124 mM
Cc1ccc(C2Cn3cnc(C(=O)N4CCC(C(=O)NCc5ccc(F)cc5)CC4)c3CO2)cc1 (stereo not shown) [NCGC00449889-01]	0.00%	-57.95%	0.00%	136.15%	0.00%	5.01	0.00988 mM
Cc1ccc(C2Cn3cnc(C(=O)N4CCC(C(=O)NCc5ccc(F)cc5F)CC4)c3CO2)cc1 (stereo not shown) [NCGC00449890-01]	0.00%	-41.53%	0.00%	88.58%	0.00%	5.01	0.00988 mM
Cc1ccc(C2Cn3cnc(C(=O)N4CCC(C(=O)NCc5ccccc5Cl)CC4)c3CO2)cc1 (stereo not shown) [NCGC00449891-01]	0.00%	-50.12%	0.00%	113.62%	0.00%	4.96	0.0111 mM
Cc1ccc(C2Cn3cnc(C(=O)N4CCC(C(=O)NCc5cccc(Cl)c5)CC4)c3CO2)cc1 (stereo not shown) [NCGC00449892-01]	0.00%	-30.33%	0.00%	61.41%	14.19%	4.91	0.0124 mM
Cc1ccc(C2Cn3cnc(C(=O)N4CCC(C(=O)NC(C)c5ccccc5)CC4)c3CO2)cc1 (stereo not shown) [NCGC00449895-01]	-8.50%	-61.76%	0.00%	100.93%	0.00%	4.96	0.0111 mM
Cc1ccc(C2Cn3cnc(C(=O)N4CCC(C(=O)NCCc5ccccc5)CC4)c3CO2)cc1 (stereo not shown) [NCGC00449896-01]	10.33%	-32.41%	0.00%	46.98%	0.00%	4.91	0.0124 mM
Cc1ccc(C2Cn3cnc(C(=O)N4CCC(C(=O)NCCCc5ccccc5)CC4)c3CO2)cc1 (stereo not shown) [NCGC00449897-01]	0.00%	-69.05%	0.00%	151.61%	-10.39%	5.01	0.00988 mM
